Holding throughout (format): biochemical
One assay addresses PI3Kγ (Homo sapiens (Human), UniProt P48736). The assay is described as follows: TR-FRET enzymatic assay of PI3K isoforms (PI3Kγ). The conditions noted are these: TR-FRET, 2×Km ATP, 2 μM PIP2, PI3Kγ at 2 nM, incubated for 30 minutes at 25° C.; read-out: γ IC50. The method, then: (§1) The compounds of formula (I) were characterized for their enzymatic activity against the PI3K isoforms. Certain compounds of the present application, including certain compounds of formula (II) and (III) were also characterized for their enzymatic activity against PI3K isoforms. The activities were measured using a time-resolved fluorescence resonance energy transfer (TR-FRET) assay.
(Time-resolved FRET reads energy transfer from a long-lived donor to a nearby acceptor.)

For another assay, the target named is PI3Kβ (Homo sapiens (Human), UniProt P42338). Put plainly: TR-FRET enzymatic assay of PI3K isoforms (PI3Kβ). Conditions: TR-FRET, 2×Km ATP, 2 μM PIP2, incubated for 30 minutes at 25° C.; read-out: β IC50. As to the method: as §1
The next assay deals with PI3Kδ (Homo sapiens (Human), UniProt O00329). Put plainly: TR-FRET enzymatic assay of PI3K isoforms (PI3Kδ). Conditions: 2×Km ATP, 2 μM PIP2, incubated for 30 minutes at 25° C., read-out: δ IC50. The method, then: as §1

SMILES strings stand for the structures.

The IC50 is the concentration at which inhibition is half-maximal.

Chain of PI3Kβ (P42338 whole entry, canonical isoform): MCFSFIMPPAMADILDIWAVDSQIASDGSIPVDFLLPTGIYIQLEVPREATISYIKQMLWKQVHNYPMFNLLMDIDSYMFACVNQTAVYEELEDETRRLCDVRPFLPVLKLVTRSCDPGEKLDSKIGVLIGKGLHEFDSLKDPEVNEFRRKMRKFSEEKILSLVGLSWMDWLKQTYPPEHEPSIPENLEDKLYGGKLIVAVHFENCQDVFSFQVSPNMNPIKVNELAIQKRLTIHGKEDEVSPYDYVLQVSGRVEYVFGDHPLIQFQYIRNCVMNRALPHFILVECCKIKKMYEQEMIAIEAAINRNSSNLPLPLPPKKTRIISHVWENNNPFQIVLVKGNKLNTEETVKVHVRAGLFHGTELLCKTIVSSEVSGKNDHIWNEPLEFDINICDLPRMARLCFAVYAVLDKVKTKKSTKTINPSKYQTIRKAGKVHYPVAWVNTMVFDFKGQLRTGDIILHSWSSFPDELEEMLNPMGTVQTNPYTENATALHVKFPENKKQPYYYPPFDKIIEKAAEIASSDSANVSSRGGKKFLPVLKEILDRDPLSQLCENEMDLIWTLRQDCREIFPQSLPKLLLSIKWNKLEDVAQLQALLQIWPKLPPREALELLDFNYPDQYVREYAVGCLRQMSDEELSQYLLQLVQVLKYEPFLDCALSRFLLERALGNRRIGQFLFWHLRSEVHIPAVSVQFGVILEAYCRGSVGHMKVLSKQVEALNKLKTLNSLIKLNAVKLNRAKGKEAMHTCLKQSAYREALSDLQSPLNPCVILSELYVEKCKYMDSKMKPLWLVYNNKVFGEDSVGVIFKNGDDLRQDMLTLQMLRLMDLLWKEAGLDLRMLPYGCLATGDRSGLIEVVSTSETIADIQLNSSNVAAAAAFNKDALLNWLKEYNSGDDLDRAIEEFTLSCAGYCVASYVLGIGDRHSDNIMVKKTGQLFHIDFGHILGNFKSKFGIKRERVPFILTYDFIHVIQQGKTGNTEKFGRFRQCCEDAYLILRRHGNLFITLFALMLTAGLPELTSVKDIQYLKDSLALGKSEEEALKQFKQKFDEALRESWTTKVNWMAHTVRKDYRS
Chain of PI3Kβ (P27986 whole entry partner, canonical isoform): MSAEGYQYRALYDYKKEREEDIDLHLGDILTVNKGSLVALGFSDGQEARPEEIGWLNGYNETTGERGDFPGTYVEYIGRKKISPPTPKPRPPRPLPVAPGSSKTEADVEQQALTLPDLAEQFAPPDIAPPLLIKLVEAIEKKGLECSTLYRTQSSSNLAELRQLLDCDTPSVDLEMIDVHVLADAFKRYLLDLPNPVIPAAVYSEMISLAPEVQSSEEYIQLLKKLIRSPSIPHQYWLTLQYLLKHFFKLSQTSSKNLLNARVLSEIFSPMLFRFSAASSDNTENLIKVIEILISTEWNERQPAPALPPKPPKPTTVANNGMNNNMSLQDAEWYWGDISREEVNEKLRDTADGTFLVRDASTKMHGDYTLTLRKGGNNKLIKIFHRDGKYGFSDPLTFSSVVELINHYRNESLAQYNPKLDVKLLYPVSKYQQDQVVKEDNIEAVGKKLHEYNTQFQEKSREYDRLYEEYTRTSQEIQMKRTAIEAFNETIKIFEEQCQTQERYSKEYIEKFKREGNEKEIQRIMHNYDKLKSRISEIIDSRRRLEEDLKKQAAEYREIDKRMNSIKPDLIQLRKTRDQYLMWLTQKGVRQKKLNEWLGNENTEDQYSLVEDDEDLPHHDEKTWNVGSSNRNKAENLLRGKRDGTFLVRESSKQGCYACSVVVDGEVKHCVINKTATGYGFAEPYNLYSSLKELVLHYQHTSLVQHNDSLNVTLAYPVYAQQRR
Chain of PI3Kδ (O00329 whole entry, canonical isoform): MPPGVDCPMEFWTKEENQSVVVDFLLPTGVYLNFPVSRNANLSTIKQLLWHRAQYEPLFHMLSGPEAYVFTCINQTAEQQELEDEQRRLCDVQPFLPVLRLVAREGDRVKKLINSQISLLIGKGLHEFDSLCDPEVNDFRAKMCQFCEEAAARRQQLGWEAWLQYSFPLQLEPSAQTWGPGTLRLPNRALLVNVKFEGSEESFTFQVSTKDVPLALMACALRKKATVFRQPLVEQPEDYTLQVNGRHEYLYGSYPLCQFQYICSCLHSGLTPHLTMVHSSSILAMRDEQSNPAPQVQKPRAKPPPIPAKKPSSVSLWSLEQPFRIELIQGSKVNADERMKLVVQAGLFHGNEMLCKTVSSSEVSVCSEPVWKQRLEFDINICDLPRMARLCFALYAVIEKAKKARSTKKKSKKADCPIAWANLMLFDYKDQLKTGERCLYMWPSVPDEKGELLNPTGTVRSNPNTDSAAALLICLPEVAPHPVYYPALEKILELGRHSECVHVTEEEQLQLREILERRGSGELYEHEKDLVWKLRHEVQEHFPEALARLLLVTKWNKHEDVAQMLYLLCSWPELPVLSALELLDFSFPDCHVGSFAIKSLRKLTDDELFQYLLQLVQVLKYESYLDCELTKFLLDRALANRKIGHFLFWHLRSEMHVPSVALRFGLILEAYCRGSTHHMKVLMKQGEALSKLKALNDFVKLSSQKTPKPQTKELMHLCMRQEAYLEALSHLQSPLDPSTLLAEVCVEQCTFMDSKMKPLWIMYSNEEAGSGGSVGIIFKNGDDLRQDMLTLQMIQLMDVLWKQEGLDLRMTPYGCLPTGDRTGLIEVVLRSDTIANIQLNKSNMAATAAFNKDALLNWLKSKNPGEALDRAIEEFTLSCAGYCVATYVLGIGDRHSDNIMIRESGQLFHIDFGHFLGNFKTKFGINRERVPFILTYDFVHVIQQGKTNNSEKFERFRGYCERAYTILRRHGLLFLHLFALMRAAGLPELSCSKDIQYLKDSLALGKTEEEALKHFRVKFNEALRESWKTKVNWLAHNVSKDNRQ
Chain of PI3Kδ (P27986 whole entry partner, canonical isoform): as the sequence (P27986 whole entry partner, canonical isoform) above
Chain of PI3Kγ (P48736 whole entry, canonical isoform): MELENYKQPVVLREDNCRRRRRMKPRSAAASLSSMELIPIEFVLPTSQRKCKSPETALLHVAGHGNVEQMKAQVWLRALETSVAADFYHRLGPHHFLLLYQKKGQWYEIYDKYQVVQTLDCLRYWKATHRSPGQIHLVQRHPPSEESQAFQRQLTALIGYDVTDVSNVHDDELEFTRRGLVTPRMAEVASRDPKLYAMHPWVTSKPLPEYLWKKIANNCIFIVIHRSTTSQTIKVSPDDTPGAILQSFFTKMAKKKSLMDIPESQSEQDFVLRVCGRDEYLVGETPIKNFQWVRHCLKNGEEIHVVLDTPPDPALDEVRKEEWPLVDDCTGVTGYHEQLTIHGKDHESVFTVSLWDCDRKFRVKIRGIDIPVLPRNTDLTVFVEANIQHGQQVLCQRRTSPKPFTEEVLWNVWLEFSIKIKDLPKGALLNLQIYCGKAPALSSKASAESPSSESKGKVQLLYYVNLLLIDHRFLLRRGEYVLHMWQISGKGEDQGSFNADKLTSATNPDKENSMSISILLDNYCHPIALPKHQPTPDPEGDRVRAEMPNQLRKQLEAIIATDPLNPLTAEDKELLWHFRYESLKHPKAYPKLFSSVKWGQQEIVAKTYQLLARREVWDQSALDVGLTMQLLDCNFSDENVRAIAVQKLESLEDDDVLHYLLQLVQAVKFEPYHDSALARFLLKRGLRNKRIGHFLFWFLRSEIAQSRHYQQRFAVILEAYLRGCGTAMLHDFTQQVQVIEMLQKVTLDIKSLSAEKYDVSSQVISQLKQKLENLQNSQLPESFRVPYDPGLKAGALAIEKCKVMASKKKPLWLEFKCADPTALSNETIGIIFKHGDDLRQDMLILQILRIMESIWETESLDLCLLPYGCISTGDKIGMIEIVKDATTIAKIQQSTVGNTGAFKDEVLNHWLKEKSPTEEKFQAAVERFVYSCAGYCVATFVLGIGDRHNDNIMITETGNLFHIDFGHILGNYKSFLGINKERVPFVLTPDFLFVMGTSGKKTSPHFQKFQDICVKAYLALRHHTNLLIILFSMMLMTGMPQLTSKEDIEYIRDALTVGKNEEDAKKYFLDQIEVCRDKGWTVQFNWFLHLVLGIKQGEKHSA
Chain of PI3Kγ (Q8WYR1 whole entry partner, canonical isoform): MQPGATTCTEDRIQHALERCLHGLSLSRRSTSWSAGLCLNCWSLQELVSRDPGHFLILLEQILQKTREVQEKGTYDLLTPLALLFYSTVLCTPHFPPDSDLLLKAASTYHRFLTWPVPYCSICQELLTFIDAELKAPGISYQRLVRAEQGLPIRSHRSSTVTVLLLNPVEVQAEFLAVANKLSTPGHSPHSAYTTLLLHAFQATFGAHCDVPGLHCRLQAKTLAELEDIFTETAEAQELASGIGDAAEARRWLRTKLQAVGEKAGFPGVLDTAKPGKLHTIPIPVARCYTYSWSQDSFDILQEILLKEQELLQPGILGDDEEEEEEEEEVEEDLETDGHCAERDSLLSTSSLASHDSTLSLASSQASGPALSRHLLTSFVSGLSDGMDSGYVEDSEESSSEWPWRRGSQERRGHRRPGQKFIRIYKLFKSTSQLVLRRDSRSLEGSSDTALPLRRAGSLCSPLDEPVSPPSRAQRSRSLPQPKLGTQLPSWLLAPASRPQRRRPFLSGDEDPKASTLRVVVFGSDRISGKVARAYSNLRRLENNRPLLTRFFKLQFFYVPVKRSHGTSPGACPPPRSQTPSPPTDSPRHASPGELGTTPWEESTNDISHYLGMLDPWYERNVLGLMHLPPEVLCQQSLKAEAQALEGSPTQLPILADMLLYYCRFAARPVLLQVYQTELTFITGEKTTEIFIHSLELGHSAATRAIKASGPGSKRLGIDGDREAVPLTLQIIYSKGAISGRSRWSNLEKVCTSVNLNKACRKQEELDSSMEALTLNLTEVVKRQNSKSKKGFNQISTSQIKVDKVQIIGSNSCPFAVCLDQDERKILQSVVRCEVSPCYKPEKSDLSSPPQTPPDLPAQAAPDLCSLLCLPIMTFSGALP

For `C[C@H](Nc1ncnc(N)c1C#N)c1nc2cccc(Cl)c2c(=O)n1-c1cccc(NC(=O)NCCC(=O)O)c1` [Compound 137, (S)-3-(3-(3-(2-(1-((6-amino-5-cyanopyrimidin-4-yl)amino)ethyl)-5-chloro-4-oxoquinazolin-3(4H)-yl)phenyl)ureido)propanoic acid], the IC50 at PI3Kγ was found to be 7600 nM; at PI3Kβ, 33 nM; on PI3Kδ, 12 nM.
On the same counts, the results for `C[C@H](Nc1ncnc(N)c1C#N)c1nc2cccc(Cl)c2c(=O)n1-c1cccc(NC(=O)NC(C)(C)CO)c1` [Compound 138, (S)-1-(3-(2-(1-((6-amino-5-cyanopyrimidin-4-yl)amino)ethyl)-5-chloro-4-oxoquinazolin-3(4H)-yl)phenyl)-3-(1-hydroxy-2-methylpropan-2-yl)urea] are 5200 nM, 4 nM and 7 nM.
On the same counts, the results for `C[C@H](Nc1ncnc(N)c1C#N)c1nc2cccc(Cl)c2c(=O)n1-c1cccc(NC(=O)NC(C)(C)C(=O)O)c1` [Compound 139, (S)-2-(3-(3-(2-(1-((6-amino-5-cyanopyrimidin-4-yl)amino)ethyl)-5-chloro-4-oxoquinazolin-3(4H)-yl)phenyl)ureido)-2-methylpropanoic acid] are 8100 nM, 30 nM and 13 nM.
In the case of `C[C@H](Nc1ncnc(N)c1C#N)c1nc2cccc(Cl)c2c(=O)n1-c1cccc(NC(=O)NC(C)(C)CCO)c1` [Compound 140, (S)-1-(3-(2-(1-((6-amino-5-cyanopyrimidin-4-yl)amino)ethyl)-5-chloro-4-oxoquinazolin-3(4H)-yl)phenyl)-3-(4-hydroxy-2-methylbutan-2-yl)urea], the IC50 is 5100 nM at PI3Kγ, 6 nM at PI3Kβ and 5 nM at PI3Kδ.
On the same counts, the results for `C[C@H](Nc1ncnc(N)c1C#N)c1nc2cccc(Cl)c2c(=O)n1-c1cccc(NC(=O)NCC(C)(C)CO)c1` [Compound 141, (S)-1-(3-(2-(1-((6-amino-5-cyanopyrimidin-4-yl)amino)ethyl)-5-chloro-4-oxoquinazolin-3(4H)-yl)phenyl)-3-(3-hydroxy-2,2-dimethylpropyl)urea] are 1600 nM, 6 nM and 6 nM.
On the same counts, the results for `C[C@H](Nc1ncnc(N)c1C#N)c1nc2cccc(Cl)c2c(=O)n1-c1cccc(NC(=O)NCCC(C)(C)O)c1` [Compound 142, (S)-1-(3-(2-(1-((6-amino-5-cyanopyrimidin-4-yl)amino)ethyl)-5-chloro-4-oxoquinazolin-3(4H)-yl)phenyl)-3-(3-hydroxy-3-methylbutyl)urea] are 7100 nM, 12 nM and 6 nM.
As to `C[C@H](Nc1ncnc(N)c1C#N)c1nc2cccc(Cl)c2c(=O)n1-c1cccc(NC(=O)Nc2ccccc2OCCO)c1` [Compound 143, (S)-1-(3-(2-(1-((6-amino-5-cyanopyrimidin-4-yl)amino)ethyl)-5-chloro-4-oxoquinazolin-3(4H)-yl)phenyl)-3-(2-(2-hydroxyethoxy)phenyl)urea], the IC50 on PI3Kγ came out at 1500 nM; at PI3Kβ, 7 nM; on PI3Kδ, 5 nM.
On the same counts, the results for `C[C@H](Nc1ncnc(N)c1C#N)c1nc2cccc(Cl)c2c(=O)n1-c1cccc(NC(=O)Nc2ccccc2S(C)(=O)=O)c1` [Compound 144, (S)-1-(3-(2-(1-((6-amino-5-cyanopyrimidin-4-yl)amino)ethyl)-5-chloro-4-oxoquinazolin-3(4H)-yl)phenyl)-3-(2-(methylsulfonyl)phenyl)urea] are 6500 nM, 17 nM and 4 nM.
On the same counts, the results for `C[C@H](Oc1ncnc2scnc12)c1nc2cccc(Cl)c2c(=O)n1-c1cccc(NC(=O)NC2CCCC2)c1` [Compound 146, (S)-1-(3-(5-chloro-4-oxo-2-(1-(thiazolo[5,4-d]pyrimidin-7-yloxy)ethyl)quinazolin-3(4H)-yl)phenyl)-3-cyclopentylurea] are 2200 nM, 57 nM and 6 nM.
On the same counts, the results for `C[C@H](Oc1ncnc2scnc12)c1nc2cccc(Cl)c2c(=O)n1-c1cccc(NC(=O)NC2(C(F)(F)F)CC2)c1` [Compound 147, (S)-1-(3-(5-chloro-4-oxo-2-(1-(thiazolo[5,4-d]pyrimidin-7-yloxy)ethyl)quinazolin-3(4H)-yl)phenyl)-3-(1-(trifluoromethyl)cyclopropyl)urea] are 2300 nM, 16 nM and 12 nM.
Turning to `C[C@H](Oc1ncnc2scnc12)c1nc2cccc(Cl)c2c(=O)n1-c1cccc(NC(=O)NCC(F)F)c1` [Compound 148, (S)-1-(3-(5-chloro-4-oxo-2-(1-(thiazolo[5,4-d]pyrimidin-7-yloxy)ethyl)quinazolin-3(4H)-yl)phenyl)-3-(2,2-difluoroethyl)urea], the IC50 on PI3Kγ was 1800 nM; at PI3Kβ it was 8 nM; at PI3Kδ, 5 nM.
On the same counts, the results for `C[C@H](Oc1ncnc2scnc12)c1nc2cccc(Cl)c2c(=O)n1-c1cccc(NC(=O)Nc2cc(C(F)(F)F)no2)c1` [Compound 150, (S)-1-(3-(5-chloro-4-oxo-2-(1-(thiazolo[5,4-d]pyrimidin-7-yloxy)ethyl)quinazolin-3(4H)-yl)phenyl)-3-(3-(trifluoromethyl)isoxazol-5-yl)urea] are 840 nM, 47 nM and 5 nM.
On the same counts, the results for `CCNC(=O)Nc1cccc(-n2c([C@H](C)Oc3ncnc4scnc34)nc3cccc(Cl)c3c2=O)c1` [Compound 151, (S)-1-(3-(5-chloro-4-oxo-2-(1-(thiazolo[5,4-d]pyrimidin-7-yloxy)ethyl)quinazolin-3(4H)-yl)phenyl)-3-ethylurea] are 1300 nM, 20 nM and 4 nM.
For the compound `C[C@H](Oc1ncnc2scnc12)c1nc2cccc(Cl)c2c(=O)n1-c1cccc(NC(=O)NCC(F)(F)C(F)(F)F)c1` [Compound 152, (S)-1-(3-(5-chloro-4-oxo-2-(1-(thiazolo[5,4-d]pyrimidin-7-yloxy)ethyl)quinazolin-3(4H)-yl)phenyl)-3-(2,2,3,3,3-pentafluoropropyl)urea], the results for the IC50 on PI3Kγ, at PI3Kβ and at PI3Kδ were 2500 nM, 17 nM and 10 nM, respectively.
Regarding `CONC(=O)Nc1cccc(-n2c([C@H](C)Oc3ncnc4scnc34)nc3cccc(Cl)c3c2=O)c1` [Compound 153, (S)-1-(3-(5-chloro-4-oxo-2-(1-(thiazolo[5,4-d]pyrimidin-7-yloxy)ethyl)quinazolin-3(4H)-yl)phenyl)-3-methoxyurea], the IC50 on PI3Kγ was 1600 nM; on PI3Kβ, 48 nM; on PI3Kδ, 4 nM.
On the same counts, the results for `CC(Oc1ncnc2scnc12)c1nc2cccc(Cl)c2c(=O)n1-c1cccc(NC(=O)NCC(F)(F)F)c1` (stereo not drawn) [Compound 154, 1-(3-(5-chloro-4-oxo-2-(1-(thiazolo[5,4-d]pyrimidin-7-yloxy)ethyl)quinazolin-3(4H)-yl)phenyl)-3-(2,2,2-trifluoroethyl)urea] are 1400 nM, 4 nM and 5 nM.
In the case of `CC(Oc1ncnc2scnc12)c1nc2cccc(Cl)c2c(=O)n1-c1cccc(NC(=O)Nc2ccccc2Cl)c1` (stereo not drawn) [Compound 156, 1-(3-(5-chloro-4-oxo-2-(1-(thiazolo[5,4-d]pyrimidin-7-yloxy)ethyl)quinazolin-3(4H)-yl)phenyl)-3-(2-chlorophenyl)urea], the IC50 is 930 nM at PI3Kγ, 41 nM at PI3Kβ and 2 nM at PI3Kδ.
On the same counts, the results for `C[C@H](Oc1ncnc2scnc12)c1nc2cccc(Cl)c2c(=O)n1-c1cccc(NC(=O)NCC2OCCO2)c1` [Compound 157, (S)-1-((1,3-dioxolan-2-yl)methyl)-3-(3-(5-chloro-4-oxo-2-(1-(thiazolo[5,4-d]pyrimidin-7-yloxy)ethyl)quinazolin-3(4H)-yl)phenyl)urea] are 3100 nM, 25 nM and 7 nM.
On the same counts, the results for `C[C@H](Oc1ncnc2scnc12)c1nc2cccc(Cl)c2c(=O)n1-c1cccc(NC(=O)NCCO)c1` [Compound 158, (S)-1-(3-(5-chloro-4-oxo-2-(1-(thiazolo[5,4-d]pyrimidin-7-yloxy)ethyl)quinazolin-3(4H)-yl)phenyl)-3-(2-hydroxyethyl)urea] are 900 nM, 9 nM and 4 nM.
On the same counts, the results for `N#Cc1c(N)ncnc1N1CCC[C@H]1c1nc2cccc(Cl)c2c(=O)n1-c1cccc(NC(=O)NCC(F)(F)F)c1` [Compound 159, (S)-1-(3-(2-(1-(6-amino-5-cyanopyrimidin-4-yl)pyrrolidin-2-yl)-5-chloro-4-oxoquinazolin-3(4H)-yl)phenyl)-3-(2,2,2-trifluoroethyl)urea] are 5600 nM, 42 nM and 33 nM.
As for `NC(=O)c1cc(F)cc(-n2c([C@@H](Nc3ncnc(N)c3Cl)C3CC3)nc3cccc(Cl)c3c2=O)c1` [Compound 160, (S)-3-(2-(((6-amino-5-chloropyrimidin-4-yl)amino)(cyclopropyl)methyl)-5-chloro-4-oxoquinazolin-3(4H)-yl)-5-fluorobenzamide], the IC50 is > 10000 nM at PI3Kγ, 2400 nM at PI3Kβ and 66 nM at PI3Kδ.

These data come from patent publication US10221197B2, “Phosphatidylinositol 3-kinase inhibitors” (Gilead Sciences, Inc., priority 2014, dated 2019).
